Assay results reported in publication PMC3685283 (Molecular cancer research : MCR, 2012).

Assays:
Smoothened (SMO) [1] = target: Smoothened (SMO) (Homo sapiens, UniProt Q99835); assay: BODIPY-cyclopamine competition binding in SMO-transfected HeLa cells; format: cell-based
Smoothened (SMO) [2] = target: Smoothened (SMO) (Mus musculus, UniProt P56726); assay: as above; format: cell-based
Sequence of Smoothened (SMO) (Mus musculus, UniProt P56726) (P56726 33-793): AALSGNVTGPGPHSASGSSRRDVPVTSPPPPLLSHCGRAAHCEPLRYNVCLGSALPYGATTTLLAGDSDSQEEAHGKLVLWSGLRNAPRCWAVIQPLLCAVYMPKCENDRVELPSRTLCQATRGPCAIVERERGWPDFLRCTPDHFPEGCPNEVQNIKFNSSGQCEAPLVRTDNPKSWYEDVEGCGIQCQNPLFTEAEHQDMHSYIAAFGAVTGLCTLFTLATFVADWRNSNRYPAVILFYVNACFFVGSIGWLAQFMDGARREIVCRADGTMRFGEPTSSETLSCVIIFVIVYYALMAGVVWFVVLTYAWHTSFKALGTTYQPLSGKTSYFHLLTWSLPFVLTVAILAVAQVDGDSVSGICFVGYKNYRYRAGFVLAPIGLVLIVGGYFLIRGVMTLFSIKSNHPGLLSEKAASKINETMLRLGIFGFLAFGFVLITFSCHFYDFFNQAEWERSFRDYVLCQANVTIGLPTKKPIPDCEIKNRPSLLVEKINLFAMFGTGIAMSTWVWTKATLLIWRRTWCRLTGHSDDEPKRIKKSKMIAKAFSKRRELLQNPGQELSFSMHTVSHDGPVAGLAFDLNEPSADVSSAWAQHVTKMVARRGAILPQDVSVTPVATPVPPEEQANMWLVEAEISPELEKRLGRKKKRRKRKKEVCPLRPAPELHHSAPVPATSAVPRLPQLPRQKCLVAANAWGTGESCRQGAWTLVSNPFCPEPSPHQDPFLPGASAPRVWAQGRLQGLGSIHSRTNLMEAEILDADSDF

Sequence of Smoothened (SMO) (Homo sapiens, UniProt Q99835) (Q99835 28-787): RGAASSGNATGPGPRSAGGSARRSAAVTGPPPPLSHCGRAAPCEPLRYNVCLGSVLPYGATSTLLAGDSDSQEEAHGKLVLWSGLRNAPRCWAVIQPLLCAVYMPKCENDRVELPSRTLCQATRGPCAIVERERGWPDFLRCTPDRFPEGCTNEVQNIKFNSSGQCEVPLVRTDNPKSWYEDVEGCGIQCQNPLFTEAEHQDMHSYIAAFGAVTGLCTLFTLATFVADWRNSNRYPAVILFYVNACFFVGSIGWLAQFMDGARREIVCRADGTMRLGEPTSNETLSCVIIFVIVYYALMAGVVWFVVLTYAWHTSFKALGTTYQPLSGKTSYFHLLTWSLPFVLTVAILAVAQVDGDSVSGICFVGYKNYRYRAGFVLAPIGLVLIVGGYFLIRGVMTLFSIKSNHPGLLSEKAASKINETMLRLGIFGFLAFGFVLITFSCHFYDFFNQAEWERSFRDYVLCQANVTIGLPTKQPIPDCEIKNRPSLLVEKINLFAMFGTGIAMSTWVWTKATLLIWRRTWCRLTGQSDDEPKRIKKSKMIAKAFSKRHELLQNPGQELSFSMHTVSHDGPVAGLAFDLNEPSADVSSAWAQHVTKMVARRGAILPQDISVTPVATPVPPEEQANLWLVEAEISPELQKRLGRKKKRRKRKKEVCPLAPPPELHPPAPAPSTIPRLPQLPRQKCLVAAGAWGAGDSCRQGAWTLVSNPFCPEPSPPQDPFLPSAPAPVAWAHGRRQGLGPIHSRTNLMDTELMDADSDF

- Kd (Smoothened (SMO) [1]): 0.8 nM
- Kd (Smoothened (SMO) [2]): 2 nM
SMILES: CC1=C2C[C@H]3[C@@H](CC=C4CC(=O)CC[C@@]43C)[C@@H]2CC[C@]12O[C@@H]1C[C@H](C)CN(CCNC(=O)CCCCCNC(=O)CCc3ccccc3)[C@H]1[C@H]2C [KAAD-cyclopamine]
